Experimental data: patent US10689377B2 (Mirati Therapeutics, Inc., priority 2017, dated 2020)
Counter-ions that a name gives are not always drawn.

Molecular target: KRas G12C (Homo sapiens, UniProt P01116, G12C)
Assay: Cellular inhibition of KRas G12C measured by Phospho-ERK in NCI-H358 cells
Type: cell-based
Settings: pERK(Thr202/Tyr204) normalized with GAPDH, NCI-H358 cells, 3 hours; read-out: IC50
How it was run: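 NCI-H358 cells were allowed to attach for 8-12 hours, then exposed to compounds for 3 hours at 0.5% DMSO final. After formaldehyde fixation and methanol permeabilization, phospho-ERK (Thr202/Tyr204) was detected by in-cell immunofluorescence and normalized to GAPDH; IC50 came from a 4-parameter fit of percent-of-DMSO values.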

Sequence of KRas G12C (P01116 1-188 isoform P01116-2 G12C): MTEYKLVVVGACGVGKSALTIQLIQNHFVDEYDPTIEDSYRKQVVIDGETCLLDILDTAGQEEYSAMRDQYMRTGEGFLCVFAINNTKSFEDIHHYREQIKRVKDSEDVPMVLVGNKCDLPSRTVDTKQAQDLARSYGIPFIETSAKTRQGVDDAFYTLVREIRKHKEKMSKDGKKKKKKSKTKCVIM

| SMILES | IC50 [nM] |
| --- | --- |
| C=CC(=O)N1CCN(c2nc(OCCCN3CCOCC3)nc3c2CCN(c2cc(O)ccc2C)C3)CC1 [Example 105, 1-(4-(7-(5-hydroxy-2-methylphenyl)-2-(3-morpholinopropoxy)-5,6,7,8-tetrahydropyrido[3,4-d]pyrimidin-4-yl)piperazin-1-yl)prop-2-en-1-one] | > 1000 |
| C=CC(=O)N1CCN(c2nc(OCCCN3CCOCC3)nc3c2CCN(c2ccc(O)cc2OC(F)(F)F)C3)CC1 [Example 106, 1-(4-(7-(4-hydroxy-2-(trifluoromethoxy)phenyl)-2-(3-morpholinopropoxy)-5,6,7,8-tetrahydropyrido[3,4-d]pyrimidin-4-yl)piperazin-1-yl)prop-2-en-1-one] | > 1000 |
| C=CC(=O)N1CCN(c2nc(OCCN(C)CCOC)nc3c2CCN(c2cc(O)cc4ccccc24)C3)CC1 [Example 107, 1-(4-(7-(3-hydroxynaphthalen-1-yl)-2-(2-((2-methoxyethyl)(methyl)amino)ethoxy)-5,6,7,8-tetrahydropyrido[3,4-d]pyrimidin-4-yl)piperazin-1-yl)prop-2-en-1-one] | > 1000 |
| C=CC(=O)N1CCN(c2nc(OCCN3CCC(OC)CC3)nc3c2CCN(c2cc(O)cc4ccccc24)C3)CC1 [Example 108, 1-(4-(7-(3-hydroxynaphthalen-1-yl)-2-(2-(4-methoxypiperidin-1-yl)ethoxy)-5,6,7,8-tetrahydropyrido[3,4-d]pyrimidin-4-yl)piperazin-1-yl)prop-2-en-1-one] | 0.1 to 1000 |
| C=CC(=O)N1CCN(c2nc(OCCN3CCC(F)(F)CC3)nc3c2CCN(c2cc(O)cc4ccccc24)C3)CC1 [Example 109] | > 1000 |
| C=CC(=O)N1CCN(c2nc(OC[C@@H]3CCN(C)C3)nc3c2CCN(c2cc(O)cc4ccccc24)C3)CC1 [Example 110, (R)-1-(4-(7-(3-hydroxynaphthalen-1-yl)-2-((1-methylpyrrolidin-3-yl)methoxy)-5,6,7,8-tetrahydropyrido[3,4-d]pyrimidin-4-yl)piperazin-1-yl)prop-2-en-1-one] | 0.1 to 1000 |
| C=CC(=O)N1CCN(c2nc(OCCN3CCC[C@H](F)C3)nc3c2CCN(c2cc(O)cc4ccccc24)C3)CC1 [Example 111, (S)-1-(4-(2-(2-(3-fluoropiperidin-1-yl)ethoxy)-7-(3-hydroxynaphthalen-1-yl)-5,6,7,8-tetrahydropyrido[3,4-d]pyrimidin-4-yl)piperazin-1-yl)prop-2-en-1-one] | 0.1 to 1000 |
| C=CC(=O)N1CCN(c2nc(OCCCN3CCOCC3)nc3c2CCN(c2cc(C(F)F)cc4ccccc24)C3)CC1 [Example 112, 1-(4-(7-(3-(difluoromethyl)naphthalen-1-yl)-2-(3-morpholinopropoxy)-5,6,7,8-tetrahydropyrido[3,4-d]pyrimidin-4-yl)piperazin-1-yl)prop-2-en-1-one] | > 1000 |
| C=CC(=O)N1CCN(c2ncnc3c2CC(=O)N(c2cc(O)cc4ccccc24)C3)CC1 [Example 113, 4-(4-acryloylpiperazin-1-yl)-7-(3-hydroxynaphthalen-1-yl)-7,8-dihydropyrido[3,4-d]pyrimidin-6(5H)-one] | > 1000 |
| C=CC(=O)N1CC2(C1)CN(c1ncnc3c1CC(=O)N(c1cc(O)cc4ccccc14)C3)C2 [Example 114, 4-(6-acryloyl-2,6-diazaspiro[3.3]heptan-2-yl)-7-(3-hydroxynaphthalen-1-yl)-7,8-dihydropyrido[3,4-d]pyrimidin-6(5H)-one] | > 1000 |
| C=CC(=O)N1CCN(c2nc(O[C@H](C)CN(C)C)nc3c2CCN(c2cc(O)cc4ccccc24)C3)[C@@H](C)C1 [Example 115, 1-((S)-4-(2-(((R)-1-(dimethylamino)propan-2-yl)oxy)-7-(3-hydroxynaphthalen-1-yl)-5,6,7,8-tetrahydropyrido[3,4-d]pyrimidin-4-yl)-3-methylpiperazin-1-yl)prop-2-en-1-one] | 0.1 to 1000 |
| C=CC(=O)N1CCN(c2nc(OCCN(C)C)nc3c2CCN(c2cc(O)cc4ccccc24)C3)[C@@H](C)C1 [Example 116, (S)-1-(4-(2-(2-(dimethylamino)ethoxy)-7-(3-hydroxynaphthalen-1-yl)-5,6,7,8-tetrahydropyrido[3,4-d]pyrimidin-4-yl)-3-methylpiperazin-1-yl)prop-2-en-1-one] | 0.1 to 1000 |
| C=CC(=O)N1CCN(c2nc(OCCN3CCOCC3)nc3c2CCN(c2cc(O)cc4ccccc24)C3)CC1 [Example 117, 1-(4-(7-(3-hydroxynaphthalen-1-yl)-2-(2-morpholinoethoxy)-5,6,7,8-tetrahydropyrido[3,4-d]pyrimidin-4-yl)piperazin-1-yl)prop-2-en-1-one] | > 1000 |
| C=CC(=O)N1CCN(c2nc(N3CCOCC3)nc3c2CCN(c2cc(O)cc4ccccc24)C3)CC1 [Example 118, 1-(4-(7-(3-hydroxynaphthalen-1-yl)-2-morpholino-5,6,7,8-tetrahydropyrido[3,4-d]pyrimidin-4-yl)piperazin-1-yl)prop-2-en-1-one] | > 1000 |
| C=CC(=O)N1CCN(c2nc(N3CCCC3)nc3c2CCN(c2cc(O)cc4ccccc24)C3)CC1 [Example 119, 1-(4-(7-(3-hydroxynaphthalen-1-yl)-2-(pyrrolidin-1-yl)-5,6,7,8-tetrahydropyrido[3,4-d]pyrimidin-4-yl)piperazin-1-yl)prop-2-en-1-one] | > 1000 |
| C=CC(=O)N1CCN(c2nc(O[C@H](C)CN3CCCC3)nc3c2CCN(c2cc(O)cc4ccccc24)C3)CC1 [Example 120, (R)-1-(4-(7-(3-hydroxynaphthalen-1-yl)-2-((1-(pyrrolidin-1-yl)propan-2-yl)oxy)-5,6,7,8-tetrahydropyrido[3,4-d]pyrimidin-4-yl)piperazin-1-yl)prop-2-en-1-one] | 0.1 to 1000 |
| C=CC(=O)N1CCN(c2nc(OCCCN3CCOCC3)nc3c2CCN(c2cc(O)cc4ccccc24)C3=O)CC1 [Example 121, 4-(4-acryloylpiperazin-1-yl)-7-(3-hydroxynaphthalen-1-yl)-2-(3-morpholinopropoxy)-6,7-dihydropyrido[3,4-d]pyrimidin-8(5H)-one] | > 1000 |
| C[C@H](CN(C)C)Oc1nc2c(c(N3CCN(C(=O)/C=C/CN(C)C)CC3)n1)CCN(c1cc(O)cc3ccccc13)C2 [Example 122, (R,E)-4-(dimethylamino)-1-(4-(2-((1-(dimethylamino)propan-2-yl)oxy)-7-(3-hydroxynaphthalen-1-yl)-5,6,7,8-tetrahydropyrido[3,4-d]pyrimidin-4-yl)piperazin-1-yl)but-2-en-1-one bis-trifluoroacetate] | > 1000 |
| C=CC(=O)N1CCN(c2nc(OCC(O)CN3CCOCC3)nc3c2CCN(c2cc(O)cc4ccccc24)C3)CC1 (stereo not drawn) [Example 123, 1-(4-(2-(2-hydroxy-3-morpholinopropoxy)-7-(3-hydroxynaphthalen-1-yl)-5,6,7,8-tetrahydropyrido[3,4-d]pyrimidin-4-yl)piperazin-1-yl)prop-2-en-1-one] | > 1000 |
| C=CC(=O)N1CCN(c2nc(O[C@H](C)CN(C)C)nc3c2CCN(c2cc(O)c(F)c4ccccc24)C3)CC1 [Example 124, (R)-1-(4-(2-((1-(dimethylamino)propan-2-yl)oxy)-7-(4-fluoro-3-hydroxynaphthalen-1-yl)-5,6,7,8-tetrahydropyrido[3,4-d]pyrimidin-4-yl)piperazin-1-yl)prop-2-en-1-one] | > 1000 |
| C=CC(=O)N1CCN(c2nc(O[C@H](C)CN(C)C)nc3c2CCN(c2cc(O)c(Cl)c4ccccc24)C3)CC1 [Example 125, (R)-1-(4-(7-(4-chloro-3-hydroxynaphthalen-1-yl)-2-((1-(dimethylamino)propan-2-yl)oxy)-5,6,7,8-tetrahydropyrido[3,4-d]pyrimidin-4-yl)piperazin-1-yl)prop-2-en-1-one] | > 1000 |
| C=CC(=O)N1CCN(c2nc(OCCc3ccccn3)nc3c2CCN(c2cc(O)cc4ccccc24)C3)CC1 [Example 126, 1-(4-(7-(3-hydroxynaphthalen-1-yl)-2-(2-(pyridin-2-yl)ethoxy)-5,6,7,8-tetrahydropyrido[3,4-d]pyrimidin-4-yl)piperazin-1-yl)prop-2-en-1-one trifluoroacetate] | > 1000 |
| C=CC(=O)N1CCN(c2nc(N3CC(N(C)C)C3)nc3c2CCN(c2cc(O)cc4ccccc24)C3)CC1 [Example 128, 1-(4-(2-(3-(dimethylamino)azetidin-1-yl)-7-(3-hydroxynaphthalen-1-yl)-5,6,7,8-tetrahydropyrido[3,4-d]pyrimidin-4-yl)piperazin-1-yl)prop-2-en-1-one] | > 1000 |
| C=CC(=O)N1CCN(c2nc(O[C@H](C)[C@H]3CCCN3C)nc3c2CCN(c2cc(O)cc4ccccc24)C3)CC1 [Example 129, 1-[4-[7-(3-hydroxy-1-naphthyl)-2-[(1R)-1-[(2R)-1-methylpyrrolidin-2-yl]ethoxy]-6,8-dihydro-5H-pyrido[3,4-d]pyrimidin-4-yl]piperazin-1-yl]prop-2-en-1-one] | 0.1 to 1000 |
| C=CC(=O)N1CCN(c2nc(O[C@@H](C)[C@@H]3CCCN3C)nc3c2CCN(c2cc(O)cc4ccccc24)C3)CC1 [Example 130, 1-(4-(7-(3-hydroxynaphthalen-1-yl)-2-((S)-1-((S)-1-methylpyrrolidin-2-yl)ethoxy)-5,6,7,8-tetrahydropyrido[3,4-d]pyrimidin-4-yl)piperazin-1-yl)prop-2-en-1-one] | 0.1 to 1000 |
| C=CC(=O)N1CCN(c2nc(OCC3CCN(C4CCCCC4)C3)nc3c2CCN(c2cc(O)cc4ccccc24)C3)CC1 (stereo not drawn) [Example 132, 1-[4-[2-[(1-cyclohexylpyrrolidin-3-yl)methoxy]-7-(3-hydroxy-1-naphthyl)-6,8-dihydro-5H-pyrido[3,4-d]pyrimidin-4-yl]piperazin-1-yl]prop-2-en-1-one] | 0.1 to 1000 |
| C=CC(=O)N1CCN(c2nc(NCCCN3CCOCC3)nc3c2CCN(c2cc(O)cc4ccccc24)C3)CC1 [Example 133, 1-[4-[7-(3-hydroxy-1-naphthyl)-2-(3-morpholinopropylamino)-6,8-dihydro-5H-pyrido[3,4-d]pyrimidin-4-yl]piperazin-1-yl]prop-2-en-1-one] | > 1000 |
